# Results: the supplement of paper PMC10307832
# Compound: CC(C)=CC[C@@H](O)C1=CC(=O)c2c(O)ccc(O)c2C1=O [Shikonin] + CCNC(=O)c1noc(-c2cc(C(C)C)c(O)cc2O)c1-c1ccc(CN2CCOCC2)cc1 [Luminespib] (partner 0.01 µM)
# Assay: relative viability (nuclei count vs DMSO), 5 days (fraction); higher = more cells survive
# Conditions: first compound 0.01 µM
# Summary of the method: (§1)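 Relative viability is defined as nuclei in treated wells over nuclei in vehicle wells. Duplicate plates were run and medians reported. Lung cancer cell lines in 1536-well plates were dosed by pin tool one day after seeding, with one drug or with a fixed anchor-drug dose plus five library-drug doses (not always all listed) in √10 steps, and nuclei were counted after 5 days.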
row,Cell Line,relative viability
1,NCI-H2342,0.763
2,NCI-H1623,0.513
3,PC-14,0.115
4,NCI-H1650,0.195
5,NCI-H2009,1.1
6,NCI-H1993,1.08
7,NCI-H520,0.253
8,PC-3 [JPC-3],0.727
9,LCLC-103H,1.01
10,NCI-H647,0.169
11,NCI-H2228,0.153
12,EMC-BAC-2,1.25
13,NCI-H2087,0.185
14,NCI-H1666,0.986
15,NCI-H650,0.678
16,LK-2,0.195
17,NCI-H2126,1.01
18,SK-MES-1,0.969
19,H3255,0.869

row,Cell Line,relative viability
1,COR-L23,0.848
2,COR-L 105,0.787
3,LOU-NH91,0.317
4,ChaGo-K-1,0.635
5,NCI-H2170,0.8
6,NCI-H3122,0.0973
7,HOP-62,0.975
8,HCC-44,0.814
9,NCI-H522,1.09
10,LU99A,0.165
11,BEN,0.505
12,HARA,0.864
13,SW 900,0.192
14,NCI-H441,0.349
15,LCLC-97TM1,0.833
16,NCI-H2023,0.969
17,NCI-H1792,0.554
18,NCI-H1563,0.575

# Same assay, conditions: first compound 0.1 µM
row,Cell Line,relative viability
1,NCI-H2342,0.65
2,NCI-H1623,0.552
3,PC-14,0.12
4,NCI-H1650,0.198
5,NCI-H2009,1.16
6,NCI-H1993,0.834
7,NCI-H520,0.216
8,PC-3 [JPC-3],0.677
9,LCLC-103H,1.17
10,NCI-H647,0.142
11,NCI-H2228,0.177
12,EMC-BAC-2,1.44
13,NCI-H2087,0.167
14,NCI-H1666,1.08
15,NCI-H650,0.822
16,LK-2,0.185
17,NCI-H2126,1.05
18,SK-MES-1,0.677
19,H3255,0.973

row,Cell Line,relative viability
1,COR-L23,0.675
2,COR-L 105,0.758
3,LOU-NH91,0.358
4,ChaGo-K-1,0.82
5,NCI-H2170,0.703
6,NCI-H3122,0.0926
7,HOP-62,0.763
8,HCC-44,1.14
9,NCI-H522,0.917
10,LU99A,0.242
11,BEN,0.469
12,HARA,0.841
13,SW 900,0.173
14,NCI-H441,0.339
15,LCLC-97TM1,0.776
16,NCI-H2023,0.851
17,NCI-H1792,0.361
18,NCI-H1563,0.465

# Same assay, conditions: first compound 0.3162 µM
row,Cell Line,relative viability
1,NCI-H2342,0.752
2,NCI-H1623,0.609
3,PC-14,0.135
4,NCI-H1650,0.175
5,NCI-H2009,1
6,NCI-H1993,0.834
7,NCI-H520,0.21
8,PC-3 [JPC-3],0.665
9,LCLC-103H,1.06
10,NCI-H647,0.147
11,NCI-H2228,0.146
12,EMC-BAC-2,1.3
13,NCI-H2087,0.156
14,NCI-H1666,0.932
15,NCI-H650,0.79
16,LK-2,0.211
17,NCI-H2126,0.966
18,SK-MES-1,0.833
19,H3255,1.05

row,Cell Line,relative viability
1,COR-L23,0.767
2,COR-L 105,0.83
3,LOU-NH91,0.382
4,ChaGo-K-1,0.55
5,NCI-H2170,0.632
6,NCI-H3122,0.0903
7,HOP-62,0.96
8,HCC-44,1.28
9,NCI-H522,1.29
10,LU99A,0.268
11,BEN,0.474
12,HARA,0.775
13,SW 900,0.207
14,NCI-H441,0.371
15,LCLC-97TM1,0.878
16,NCI-H2023,0.982
17,NCI-H1792,0.371
18,NCI-H1563,0.542

# Same assay, conditions: first compound 1 µM
row,Cell Line,relative viability
1,NCI-H2342,0.702
2,NCI-H1623,0.368
3,PC-14,0.151
4,NCI-H1650,0.193
5,NCI-H2009,0.876
6,NCI-H1993,0.531
7,NCI-H520,0.207
8,PC-3 [JPC-3],0.622
9,LCLC-103H,0.993
10,NCI-H647,0.159
11,NCI-H2228,0.163
12,EMC-BAC-2,1.24
13,NCI-H2087,0.153
14,NCI-H1666,1.04
15,NCI-H650,0.61
16,LK-2,0.17
17,NCI-H2126,0.891
18,SK-MES-1,0.698
19,H3255,0.865

row,Cell Line,relative viability
1,COR-L23,0.357
2,COR-L 105,0.74
3,LOU-NH91,0.332
4,ChaGo-K-1,0.415
5,NCI-H2170,0.562
6,NCI-H3122,0.0968
7,HOP-62,0.914
8,HCC-44,1.23
9,NCI-H522,1.31
10,LU99A,0.177
11,BEN,0.849
12,HARA,0.936
13,SW 900,0.155
14,NCI-H441,0.323
15,LCLC-97TM1,0.717
16,NCI-H2023,0.59
17,NCI-H1792,0.544
18,NCI-H1563,0.453

# Compound: CC(C)=CC[C@@H](O)C1=CC(=O)c2c(O)ccc(O)c2C1=O [Shikonin] + Cc1nc(Nc2ncc(C(=O)Nc3c(C)cccc3Cl)s2)cc(N2CCN(CCO)CC2)n1 [Dasatinib] (partner 0.075 µM)
# Assay: as above
# Conditions: first compound 0.01 µM
# Summary of the method: as §1
row,Cell Line,relative viability
1,NCI-H2342,0.334
2,NCI-H1623,0.475
3,PC-14,0.224
4,NCI-H1650,0.299
5,NCI-H2009,0.281
6,NCI-H1993,0.537
7,NCI-H520,0.294
8,PC-3 [JPC-3],1.11
9,LCLC-103H,0.499
10,NCI-H647,0.159
